According to patent US10512654B2, “Pharmaceutical composition including dutasteride and capsule formulation comprising the same” (YUYU PHARMA, INC., priority 2015, dated 2019):
Values after ≈ are worked out from the molar mass of the structure shown.

Legend:
Format in all cases: physicochemical
[1] = Test I on stability of dutasteride depending on oil type (Test Example 2)
Method: As samples used in the comparison test, a sample dissolving 1.0 mg of dutasteride in 10.0 mg of propylene glycol monolaurate and stored in a transparent vial, and a sample dissolving 1.0 mg of dutasteride in 10.0 mg of caprylic/capric acid mono-di-glyceride and stored in a transparent vial were used.

[2] = Solubility of dutasteride in oil (Test Example 1); conditions: for solubility at 24 h: oil or lipid, thermodynamic from solid
Method: In order to measure the solubility of dutasteride in oil, the solubility of dutasteride in soybean oil, castor oil, propylene glycol dicaprylate, propylene glycol dicaprate and propylene glycol monolaurate was measured. In a 10 mL vial, a magnetic bar was placed. After 3 mL of the oil was added thereto, approximately 100 mg of dutasteride was added thereto while stirring under a room temperature (25° C.) condition, and the resultant mixture was stirred with 500 rpm or higher. After stirring for 24 hours, 1 mL of the resultant mixture was taken and separated using a centrifuge, and only the supernatant was taken to quantify the amount of dutasteride dissolved in the oil using liquid chromatography.

[3] = Stability of dutasteride in mixture of oil and surfactant (Test Example 3); conditions: storage condition not given
Method: A stability test on the pharmaceutical composition of the comparative example dissolving 0.5 mg of dutasteride in a mixture of 95 mg of propylene glycol monocaprylate and 5 mg of polyoxyl 35 castor oil and stored in a transparent vial, and the pharmaceutical composition of the example including dutasteride, propylene glycol monolaurate and polyoxyl 35 castor oil was carried out by identifying the generation of degradation products under an accelerated condition (40° C., 75% RH) and a stress condition (50° C. 95% RH). As shown in the following Table 5, it was seen that the mixture of propylene glycol monolaurate and a surfactant secured the stability of dutasteride unlike mixtures of surfactant with other oils such as propylene glycol monocaprylate.

[4] = in Propylene Glycol Monocaprylate + Polyoxyl 35 Castor Oil
[5] = in Propylene Glycol Monolaurate + Polyoxyl 35 Castor Oil

Amount of Degradation Products (%) After 4 Weeks ([1]; in Caprylic/Capric Acid Mono-Di-Glyceride, Accelerated Condition (40° C., 75% RH)): 0.94% | Amount of Degradation Products (%) After 4 Weeks ([1]; in Caprylic/Capric Acid Mono-Di-Glyceride, Stress Condition (50° C., 95% RH)): 1.75% | Amount of Degradation Products (%) After 4 Weeks ([1]; in Propylene Glycol Monolaurate, Accelerated Condition (40° C., 75% RH)): None | Amount of Degradation Products (%) After 4 Weeks ([1]; in Propylene Glycol Monolaurate, Accelerated Condition (40° C., 75% RH), listed as dutasteride): not generated | Amount of Degradation Products (%) After 4 Weeks ([1]; in Propylene Glycol Monolaurate, Stress Condition (50° C., 95% RH)): 0.32% | Stability of dutasteride in propylene glycol monolaurate compared to caprylic/capric acid mono-di-glyceride ([1]; week 4, accelerated (40° C., 75% RH) and stress condition (50° C., 95% RH), in words): more superior | Solubility of Dutasteride ([2]; in Propylene Glycol Dicaprylate, room temperature (25° C.), stirring for 24 hours): 1130 µg/mL | solubility at 24 h ([2]; in Propylene Glycol Dicaprate, room temperature (25° C.), stirring for 24 hours): 770 µg/mL (≈ 1.46 mM) | solubility at 24 h ([2]; in Propylene Glycol Monolaurate, room temperature (25° C.), stirring for 24 hours): 10400 µg/mL (≈ 19.7 mM) | Solubility in propylene glycol monolaurate compared to other tested oils ([2]; propylene glycol monolaurate vs other tested (general) oils): ≥ 10 times | Amount of Degradation Products (%) After 3 Weeks [3, 4]: 6.2% | Amount of Degradation Products (%) After 4 Weeks [3, 4]: 12.1% | Amount of Degradation Products (%) After 3 Weeks [3, 5]: None | Amount of Degradation Products (%) After 4 Weeks [3, 5]: None
SMILES: C[C@]12C=CC(=O)N[C@@H]1CC[C@@H]1[C@@H]2CC[C@]2(C)[C@@H](C(=O)Nc3cc(C(F)(F)F)ccc3C(F)(F)F)CC[C@@H]12 [Dutasteride, 17β-N-(2,5-bis(trifluoromethyl))phenylcarbamoyl-4-aza-5α-androst-1-en-3-one]
